The record followed here is patent publication US20160015704A1, “COMBINATIONS COMPRISING MABA COMPOUNDS AND CORTICOSTEROIDS” (ALMIRALL, S.A., priority 2013, published 2016).

The experiment relates to IL-8 secretion induced by LPS in peripheral blood neutrophils. Kind of experiment: Inhibition of IL-8 secretion induced by LPS in isolated peripheral blood neutrophils (ELISA). Type of experiment: cell-based. The conditions noted are these: Homo sapiens, Neutrophil; for inhibition at 10 pM: single agent 0.01 nM. The procedure:
5 Healthy subjects were included for leukocyte experiments. Pulmonary function tests (forced spirometry) and arterial blood gas measurements were performed during the days prior to sample.
Neutrophils were isolated from peripheral blood of healthy volunteers according to standard procedures established in the laboratory (Milara J et al., Respiration 2012; 83, 147-158).
Isolated neutrophils were incubated with different drugs (MABA compound, mometasone or fluticasone) or vehicle for 30 minutes before incubation with LPS (1 mcg/mL) (Lipopolysaccharide, a representative stimulus as inflammatory mediator) for 6 hours in standard cell culture conditions (37° C. and 5% CO2). Supernatant were collected to measure IL-8 (the inflammatory marker).
IL-8 (Interleukin-8) was determined by ELISA according to the standard procedure.
Data was presented as mean±SEM. Statistical analysis of results was carried out by analysis of variance (ANOVA) followed by Bonferroni test, by Student's t test, or by non-parametric tests as appropriate (GraphPad Software Inc, San Diego, Calif., USA). Significance was accepted when P<0.05.

Where [1] appears, read: 30 min pre-incubation, LPS 1 mcg/mL 6 h, neutrophils from healthy subjects (5 volunteers in triplicate), Table 1.

In general, inhibition refers to the drop in the measured response relative to a control, in per cent. With `COc1cc(NC(=O)OCCN(C)[C@H]2CC[C@H](OC(=O)C(O)(c3cccs3)c3cccs3)CC2)c(Cl)cc1CNC[C@H](O)c1ccc(O)c2[nH]c(=O)ccc12` [Cpd 1, trans-4-[{2-[({[2-chloro-4-({[(2R)-2-hydroxy-2-(8-hydroxy-2-oxo-1,2-dihydroquinolin-5-yl)ethyl]amino}methyl)-5-methoxyphenyl]amino}carbonyl)oxy]ethyl}-(methyl)amino]cyclohexyl hydroxy(di-2-thienyl)acetate], the inhibition at 10 pM runs as follows: under setting [1], 5.6%; (IL-8 secretion induced by LPS 1 mcg/mL 6 h, neutrophils from healthy subjects, Table 2) 5.6%. For the setting “single agent 0.1 nM, IL-8 secretion induced by LPS 1 mcg/mL 6 h, neutrophils from healthy subjects, Table 2”, `C[C@@H]1C[C@H]2[C@@H]3C[C@H](F)C4=CC(=O)C=C[C@]4(C)[C@@]3(F)[C@@H](O)C[C@]2(C)[C@@]1(O)C(=O)SCF` [Fluticasone, fluticasone] registered an inhibition at 0.0001 µM of 10.2%. In turn, `C[C@@H]1C[C@H]2[C@@H]3CCC4=CC(=O)C=C[C@]4(C)[C@@]3(Cl)[C@@H](O)C[C@]2(C)[C@@]1(O)C(=O)CCl` [Mometasone, mometasone] yielded an inhibition at 10 pM under setting [1] of 2.85%.
